Measured values: patent US12139520B2 (priority 2020, dated 2024)
Numbered stars: 1 amine (or outer) side, 2 acyl side, 3 side chain; on linkers, the order of the positions; unused ones are H or OH. Bridge positions count the residues as written; N and C are the ends. Square brackets hold non-standard residues; d marks the D form. Peptide text beside a SMILES is read from it. * marks the point of attachment. C20 diacid = O=C(O)CCCCCCCCCCCCCCCCCCC(=O)*; γGlu = O=C(O)[C@H](CCC(=O)[*:2])N[*:1]; Hyp = O=C(O)[C@@H]1C[C@@H](O)CN1

How the values were obtained:
[1] = target: T1, hAMY3 receptor (Homo sapiens, UniProt O60896+P30988); assay: cAMP assay for in vitro receptor activation, hAMY3-R; assay type: cell-based; details: cAMP assay, hAMY3 receptor; read-out: hAMY3R EC50
T1 sequence (P30988 25-474): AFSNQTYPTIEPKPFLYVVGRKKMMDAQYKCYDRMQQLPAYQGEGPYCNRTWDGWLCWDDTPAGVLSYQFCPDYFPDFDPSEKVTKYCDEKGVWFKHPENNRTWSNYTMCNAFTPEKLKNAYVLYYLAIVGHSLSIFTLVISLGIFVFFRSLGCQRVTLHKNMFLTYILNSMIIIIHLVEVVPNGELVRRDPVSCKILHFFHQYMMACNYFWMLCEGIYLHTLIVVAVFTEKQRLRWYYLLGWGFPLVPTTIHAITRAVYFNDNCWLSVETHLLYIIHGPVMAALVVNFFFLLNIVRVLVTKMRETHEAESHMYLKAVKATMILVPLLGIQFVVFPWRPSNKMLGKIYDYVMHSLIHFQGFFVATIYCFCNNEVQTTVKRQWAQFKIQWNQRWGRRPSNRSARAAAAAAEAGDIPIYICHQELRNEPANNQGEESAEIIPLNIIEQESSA
T1 sequence (O60896 24-148 partner): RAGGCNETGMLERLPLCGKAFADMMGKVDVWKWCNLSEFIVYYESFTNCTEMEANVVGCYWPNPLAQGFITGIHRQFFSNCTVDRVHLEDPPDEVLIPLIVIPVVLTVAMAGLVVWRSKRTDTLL
Summary of the method: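 Monoclonal cell line stably overexpressing hAMY3 receptor, plated in DPBS with 0.05% casein and 0.5 mM IBMX, was stimulated with graded compound doses for 30 min at room temperature. cAMP accumulation was read by time-resolved FRET one hour after adding detection reagents.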

[2] = target: hAM1 receptor (Homo sapiens, UniProt O60895+Q16602); assay: cAMP assay for in vitro receptor activation, hAM1-R; assay type: cell-based; details: cAMP assay, hAM1 receptor; read-out: hAM1R EC50
Summary of the method: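 Read-out is intracellular cAMP as a measure of receptor activation. Cells stably overexpressing hAM1 were subcloned to a monoclonal line, then thawed and seeded at 8000 cells/well in DPBS with 0.05% casein and the phosphodiesterase inhibitor IBMX at 0.5 mM.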

Chain of hAM1 receptor (Q16602 23-461): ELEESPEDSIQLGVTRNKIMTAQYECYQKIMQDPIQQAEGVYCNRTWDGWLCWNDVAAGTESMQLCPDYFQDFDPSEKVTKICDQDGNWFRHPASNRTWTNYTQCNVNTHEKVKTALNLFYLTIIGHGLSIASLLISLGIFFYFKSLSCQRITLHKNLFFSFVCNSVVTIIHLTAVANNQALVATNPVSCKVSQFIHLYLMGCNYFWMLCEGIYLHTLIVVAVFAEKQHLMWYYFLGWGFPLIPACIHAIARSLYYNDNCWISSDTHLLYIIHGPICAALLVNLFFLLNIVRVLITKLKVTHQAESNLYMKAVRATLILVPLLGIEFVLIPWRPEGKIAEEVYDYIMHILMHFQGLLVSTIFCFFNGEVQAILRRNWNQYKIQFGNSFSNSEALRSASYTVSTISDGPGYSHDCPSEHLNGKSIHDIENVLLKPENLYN
Chain of hAM1 receptor (O60895 43-175 partner): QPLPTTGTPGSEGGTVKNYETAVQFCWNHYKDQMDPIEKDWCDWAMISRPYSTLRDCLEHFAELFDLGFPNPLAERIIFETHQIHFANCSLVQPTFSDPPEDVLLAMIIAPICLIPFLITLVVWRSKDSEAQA

| EC50 [1] [nM] | EC50 [2] [nM] | Compound |
| --- | --- | --- |
| 0.038 | > 5000 | CC[C@H](C)[C@H](NC(=O)[C@H](CCC(N)=O)NC(=O)[C@H](CCC(=O)O)NC(=O)[C@H](C)NC(=O)[C@H](CC(C)C)NC(=O)[C@H](CCCNC(=N)N)NC(=O)[C@H](CCC(N)=O)NC(=O)[C@@H](NC(=O)[C@@H](NC(=O)[C@@H]1CSSC[C@H](NC(=O)[C@H](CCCCN)NC(=O)CC[C@H](NC(=O)CCCCCCCCCCCCCCCCCCC(=O)O)C(=O)O)C(=O)N[C@@H](CC(N)=O)C(=O)N[C@@H]([C@@H](C)O)C(=O)N[C@@H](C)C(=O)N[C@@H]([C@@H](C)O)C(=O)N1)[C@@H](C)O)C(C)C)C(=O)N[C@@H](C)C(=O)N[C@@H](CCC(N)=O)C(=O)N[C@@H](Cc1ccccc1)C(=O)N[C@H](C(=O)N[C@@H](CC(=O)O)C(=O)N[C@@H](CCCCN)C(=O)N[C@@H](CC(=O)O)C(=O)N[C@@H](CCCCN)C(=O)N[C@@H](CC(=O)O)C(=O)N1CCC[C@H]1C(=O)N[C@H](C(=O)N[C@@H](C)C(=O)N1CCC[C@H]1C(=O)N1CCC[C@H]1C(=O)N[C@H](C(=O)N[C@@H](CC(N)=O)C(=O)N[C@H](C(=O)NCC(=O)N[C@@H](CO)C(=O)N[C@@H](CC(N)=O)C(=O)NCC(=O)N1C[C@H](O)C[C@H]1C(N)=O)C(C)C)[C@@H](C)O)C(C)C)[C@@H](C)O [compound 144] ({C20 diacid-γGlu}-KCNTATCTVQRLAEQIAQFTDKDKDPVAPPTNVGSNG[Hyp]-NH2; disulfide 2-7) |
| 0.008 | > 5000 | CC[C@H](C)[C@H](NC(=O)[C@H](CCC(N)=O)NC(=O)[C@H](Cc1c[nH]cn1)NC(=O)[C@H](C)NC(=O)[C@H](CC(C)C)NC(=O)[C@H](CCCNC(=N)N)NC(=O)[C@H](CCC(N)=O)NC(=O)[C@@H](NC(=O)[C@@H](NC(=O)[C@@H]1CSSC[C@H](NC(=O)[C@H](CCCCN)NC(=O)CC[C@H](NC(=O)CCCCCCCCCCCCCCCCCCC(=O)O)C(=O)O)C(=O)N[C@@H](CC(N)=O)C(=O)N[C@@H]([C@@H](C)O)C(=O)N[C@@H](C)C(=O)N[C@@H]([C@@H](C)O)C(=O)N1)[C@@H](C)O)C(C)C)C(=O)N[C@H](C(=O)N[C@@H](CCC(N)=O)C(=O)N[C@@H](Cc1ccccc1)C(=O)N[C@H](C(=O)N[C@@H](CC(=O)O)C(=O)N[C@@H](CCCCN)C(=O)N[C@@H](CC(=O)O)C(=O)N[C@@H](CCCCN)C(=O)N[C@@H](CC(=O)O)C(=O)N[C@@H](CC(N)=O)C(=O)N[C@H](C(=O)N[C@@H](C)C(=O)N1CCC[C@H]1C(=O)N1CCC[C@H]1C(=O)N[C@H](C(=O)N[C@@H](CC(N)=O)C(=O)N[C@H](C(=O)NCC(=O)N[C@@H](CO)C(=O)N[C@@H](CC(N)=O)C(=O)NCC(=O)N1C[C@H](O)C[C@H]1C(N)=O)C(C)C)[C@@H](C)O)C(C)C)[C@@H](C)O)[C@@H](C)O [compound 22] ({C20 diacid-γGlu}-KCNTATCTVQRLAHQITQFTDKDKDNVAPPTNVGSNG[Hyp]-NH2; disulfide 2-7) |
| 0.012 | > 5000 | CC[C@H](C)[C@H](NC(=O)[C@H](C)NC(=O)CNC(=O)[C@H](Cc1ccccc1)NC(=O)[C@H](CC(N)=O)NC(=O)[C@H](CC(N)=O)NC(=O)[C@H](CO)NC(=O)[C@H](CO)NC(=O)[C@H](Cc1c[nH]cn1)NC(=O)[C@@H](NC(=O)[C@H](CC(C)C)NC(=O)[C@H](Cc1ccccc1)NC(=O)[C@H](CC(N)=O)NC(=O)[C@H](C)NC(=O)[C@H](CC(C)C)NC(=O)[C@H](CCCNC(=N)N)NC(=O)[C@H](CCC(N)=O)NC(=O)[C@@H](NC(=O)[C@H](C)NC(=O)[C@@H]1CSSC[C@H](NC(=O)[C@@H](N)CCCCN)C(=O)N[C@@H](CC(N)=O)C(=O)N[C@@H]([C@@H](C)O)C(=O)N[C@@H](C)C(=O)N[C@@H]([C@@H](C)O)C(=O)N1)[C@@H](C)O)C(C)C)C(=O)N[C@@H](CC(C)C)C(=O)N1CCC[C@H]1C(=O)N[C@@H](CO)C(=O)N[C@H](C(=O)N[C@@H](CCCCN)C(=O)N[C@H](C(=O)NCC(=O)N[C@@H](CO)C(=O)N[C@@H](CC(N)=O)C(=O)NCC(=O)N[C@@H](Cc1ccc(O)cc1)C(N)=O)C(C)C)[C@@H](C)O [compound 59] (H-KCNTATCATQRLANFLVHSSNNFGAILPSTKVGSNGY-NH2; disulfide 2-7) |
| 0.051 | > 5000 | CC[C@H](C)[C@H](NC(=O)[C@H](C)NC(=O)CNC(=O)[C@H](Cc1ccccc1)NC(=O)[C@H](CC(N)=O)NC(=O)[C@H](CC(N)=O)NC(=O)[C@H](CO)NC(=O)[C@H](CO)NC(=O)[C@H](Cc1c[nH]cn1)NC(=O)[C@@H](NC(=O)[C@H](CC(C)C)NC(=O)[C@H](Cc1ccccc1)NC(=O)[C@H](CC(N)=O)NC(=O)[C@H](C)NC(=O)[C@H](CC(C)C)NC(=O)[C@H](CCCNC(=N)N)NC(=O)[C@H](CCC(N)=O)NC(=O)[C@@H](NC(=O)[C@H](C)NC(=O)[C@@H]1CSSC[C@H](NC(=O)[C@@H](N)CCCCN)C(=O)N[C@@H](CC(N)=O)C(=O)N[C@@H]([C@@H](C)O)C(=O)N[C@@H](C)C(=O)N[C@@H]([C@@H](C)O)C(=O)N1)[C@@H](C)O)C(C)C)C(=O)N[C@@H](CC(C)C)C(=O)N1CCC[C@H]1C(=O)N[C@@H](CO)C(=O)N[C@H](C(=O)N[C@@H](CCCCN)C(=O)N[C@H](C(=O)NCC(=O)N1CCC[C@H]1C(=O)N[C@@H](CC(N)=O)C(=O)NCC(=O)N[C@@H](Cc1ccc(O)cc1)C(N)=O)[C@@H](C)CC)[C@@H](C)O [compound 162] (H-KCNTATCATQRLANFLVHSSNNFGAILPSTKIGPNGY-NH2; disulfide 2-7; N-terminus assumed) |
| 0.018 | > 5000 | CC[C@H](C)[C@H](NC(=O)[C@H](CCC(N)=O)NC(=O)[C@H](Cc1c[nH]cn1)NC(=O)[C@H](C)NC(=O)[C@H](CC(C)C)NC(=O)[C@H](CCCNC(=N)N)NC(=O)[C@H](CCC(N)=O)NC(=O)[C@@H](NC(=O)[C@@H](NC(=O)[C@@H]1CSSC[C@H](NC(=O)[C@H](CCCCN)NC(=O)CC[C@H](NC(=O)CCCCCCCCCCCCCCCCCCC(=O)O)C(=O)O)C(=O)N[C@@H](CC(N)=O)C(=O)N[C@@H]([C@@H](C)O)C(=O)N[C@@H](C)C(=O)N[C@@H]([C@@H](C)O)C(=O)N1)[C@@H](C)O)C(C)C)C(=O)N[C@@H](Cc1ccc(O)cc1)C(=O)N[C@@H](CCC(N)=O)C(=O)N[C@@H](Cc1ccccc1)C(=O)N[C@@H](Cc1ccc(O)cc1)C(=O)N[C@@H](CC(=O)O)C(=O)N[C@@H](CCCCN)C(=O)N[C@@H](CC(=O)O)C(=O)N[C@@H](CCCCN)C(=O)N[C@@H](CC(=O)O)C(=O)N[C@@H](CC(N)=O)C(=O)N[C@H](C(=O)N[C@@H](C)C(=O)N1CCC[C@H]1C(=O)N1CCC[C@H]1C(=O)N[C@H](C(=O)N[C@@H](CC(N)=O)C(=O)N[C@H](C(=O)NCC(=O)N[C@@H](CO)C(=O)N[C@@H](CC(N)=O)C(=O)NCC(=O)N1C[C@H](O)C[C@H]1C(N)=O)C(C)C)[C@@H](C)O)C(C)C [compound 104] ({C20 diacid-γGlu}-KCNTATCTVQRLAHQIYQFYDKDKDNVAPPTNVGSNG[Hyp]-NH2; disulfide 2-7) |
| 0.017 | > 5000 | CC[C@H](C)[C@H](NC(=O)[C@H](CCC(N)=O)NC(=O)[C@H](CCC(=O)O)NC(=O)[C@H](C)NC(=O)[C@H](CC(C)C)NC(=O)[C@H](CCCNC(=N)N)NC(=O)[C@H](CCC(N)=O)NC(=O)[C@@H](NC(=O)[C@@H](NC(=O)[C@@H]1CSSC[C@H](NC(=O)[C@H](CCCCN)NC(=O)CC[C@H](NC(=O)CCCCCCCCCCCCCCCCCCC(=O)O)C(=O)O)C(=O)N[C@@H](CC(N)=O)C(=O)N[C@@H]([C@@H](C)O)C(=O)N[C@@H](C)C(=O)N[C@@H]([C@@H](C)O)C(=O)N1)[C@@H](C)O)C(C)C)C(=O)N[C@@H](Cc1ccc(O)cc1)C(=O)N[C@@H](CCC(N)=O)C(=O)N[C@@H](Cc1ccccc1)C(=O)N[C@H](C(=O)N[C@@H](CC(=O)O)C(=O)N[C@@H](CCCCN)C(=O)N[C@@H](CC(=O)O)C(=O)N[C@@H](CCCCN)C(=O)N[C@@H](CC(=O)O)C(=O)N[C@@H](CCC(N)=O)C(=O)N[C@H](C(=O)N[C@@H](C)C(=O)N1CCC[C@H]1C(=O)N1CCC[C@H]1C(=O)N[C@H](C(=O)N[C@@H](CC(N)=O)C(=O)N[C@H](C(=O)NCC(=O)N[C@@H](CO)C(=O)N[C@@H](CC(N)=O)C(=O)NCC(=O)N1C[C@H](O)C[C@H]1C(N)=O)C(C)C)[C@@H](C)O)C(C)C)[C@@H](C)O [compound 100] ({C20 diacid-γGlu}-KCNTATCTVQRLAEQIYQFTDKDKDQVAPPTNVGSNG[Hyp]-NH2; disulfide 2-7) |
